The values below come from ChEMBL document CHEMBL1147595, “Design and synthesis of photoactivatable aryl diketo acid-containing HIV-1 integrase inhibitors as potential affinity probes” (Bioorg Med Chem Lett, 2004).

Test [1] concerns the target T1, Human immunodeficiency virus type 1 integrase (Human immunodeficiency virus 1, UniProt Q7ZJM1). Description: Inhibition of Integrase (strand transfer) as measured in an in vitro assay.
In test [2] the target is T1, Human immunodeficiency virus type 1 integrase. Description: Inhibition of Integrase (3'-processing) as measured in an in vitro assay.
The target is the same in test [3]. The test is described as follows: Inhibition of integrase catalyzed strand transfer (ST) as measured in an in vitro assay.
The target is the same in test [4]. Description: Inhibition of Integrase catalyzed strand transfer (ST) as measured in an in vitro assay.

Several values for one entry are separate records, joined by “and”; a condition that tells them apart may be missing. Equal values may be shown once. Some results are limits rather than exact numbers.

A word on the IC50: it is the concentration that gives 50% inhibition. Higher therefore signals lower potency.

T1 sequence (Q7ZJM1 whole entry): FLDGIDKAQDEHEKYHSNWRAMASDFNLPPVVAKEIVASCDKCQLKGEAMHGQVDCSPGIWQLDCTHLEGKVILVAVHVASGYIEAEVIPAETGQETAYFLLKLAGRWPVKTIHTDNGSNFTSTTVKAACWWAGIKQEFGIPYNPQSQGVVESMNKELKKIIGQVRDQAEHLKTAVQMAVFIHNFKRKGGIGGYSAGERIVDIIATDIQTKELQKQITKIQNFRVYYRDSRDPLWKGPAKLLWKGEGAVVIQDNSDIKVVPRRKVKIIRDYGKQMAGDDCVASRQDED

`O=C(O)C(=O)CC(=O)c1cccc(Cc2ccccc2)c1` showed an IC50 in test [1] below 0.1 µM.

With `O=C(O)C(=O)CC(=O)c1cccc(C(=O)c2ccccc2)c1`, the IC50 in test [2] was above 100 µM; in test [3], 2.7 µM; in test [4], 2.1 µM.

Turning to `[N-]=[N+]=Nc1cccc(C(=O)CC(=O)C(=O)O)c1`, the IC50 in test [2] was above 100 µM; in test [4], 5.3 µM and 5.2 µM.

In the case of `O=C(O)C(=O)CC(=O)c1cccc(OCc2ccc(C(=O)c3ccccc3)cc2)c1`, the IC50 in test [2] is above 100 µM; in test [4], 19 µM and 29 µM.
